Assays:
Glucocorticoid receptor [1] = target: T1, Glucocorticoid receptor (Homo sapiens, UniProt P04150); experiment: Inhibition of human glucocorticoid receptor alpha by displacement of [3H]dexamethasone
T1 sequence (P04150 whole entry): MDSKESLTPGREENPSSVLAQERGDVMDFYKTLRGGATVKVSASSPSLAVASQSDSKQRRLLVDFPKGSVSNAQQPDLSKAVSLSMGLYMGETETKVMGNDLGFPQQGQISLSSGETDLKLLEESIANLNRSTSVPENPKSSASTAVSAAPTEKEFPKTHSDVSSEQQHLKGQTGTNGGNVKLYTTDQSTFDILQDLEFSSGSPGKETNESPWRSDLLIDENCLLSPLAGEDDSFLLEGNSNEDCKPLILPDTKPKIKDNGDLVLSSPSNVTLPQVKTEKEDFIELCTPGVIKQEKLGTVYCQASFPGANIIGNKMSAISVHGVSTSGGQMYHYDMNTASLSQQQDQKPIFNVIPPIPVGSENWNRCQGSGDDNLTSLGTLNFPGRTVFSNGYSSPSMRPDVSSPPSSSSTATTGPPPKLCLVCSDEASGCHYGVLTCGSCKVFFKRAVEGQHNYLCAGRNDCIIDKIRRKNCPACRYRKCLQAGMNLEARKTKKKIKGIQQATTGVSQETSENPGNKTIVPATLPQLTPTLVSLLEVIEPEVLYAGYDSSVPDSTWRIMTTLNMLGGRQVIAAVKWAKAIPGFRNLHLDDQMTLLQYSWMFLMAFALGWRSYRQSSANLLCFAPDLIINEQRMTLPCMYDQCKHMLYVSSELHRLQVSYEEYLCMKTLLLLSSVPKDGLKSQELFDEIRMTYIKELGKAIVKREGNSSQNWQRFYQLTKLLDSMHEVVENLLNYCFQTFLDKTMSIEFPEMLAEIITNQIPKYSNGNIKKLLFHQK

Glucocorticoid receptor [2] = target: T2, Glucocorticoid receptor (Mus musculus, UniProt P06537); experiment: GR-mediated transrepression of IL-6 in peritoneal exudate cells harvested from C57BI/6 mice; type: cell-based
T2 sequence (P06537 whole entry): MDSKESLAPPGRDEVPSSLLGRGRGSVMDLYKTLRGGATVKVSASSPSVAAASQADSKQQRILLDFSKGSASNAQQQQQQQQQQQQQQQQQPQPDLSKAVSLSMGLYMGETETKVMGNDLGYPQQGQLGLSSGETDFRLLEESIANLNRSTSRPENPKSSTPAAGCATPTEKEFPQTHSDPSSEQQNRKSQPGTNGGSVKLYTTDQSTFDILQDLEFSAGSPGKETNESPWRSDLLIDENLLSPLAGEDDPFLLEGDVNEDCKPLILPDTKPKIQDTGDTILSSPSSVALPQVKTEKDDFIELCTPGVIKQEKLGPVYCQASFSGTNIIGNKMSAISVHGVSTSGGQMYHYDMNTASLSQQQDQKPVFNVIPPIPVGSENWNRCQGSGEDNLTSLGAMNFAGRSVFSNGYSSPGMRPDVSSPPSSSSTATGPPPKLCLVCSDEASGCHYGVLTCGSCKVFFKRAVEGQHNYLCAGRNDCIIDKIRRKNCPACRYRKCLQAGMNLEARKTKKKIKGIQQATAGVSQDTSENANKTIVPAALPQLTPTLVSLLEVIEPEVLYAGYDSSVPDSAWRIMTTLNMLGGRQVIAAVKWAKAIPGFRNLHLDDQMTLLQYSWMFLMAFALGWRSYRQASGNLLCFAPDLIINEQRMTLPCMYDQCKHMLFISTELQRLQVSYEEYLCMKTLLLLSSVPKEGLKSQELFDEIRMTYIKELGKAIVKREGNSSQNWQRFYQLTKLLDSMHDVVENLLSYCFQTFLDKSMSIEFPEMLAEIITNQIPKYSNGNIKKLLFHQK

Glucocorticoid receptor [3] = target: T2, Glucocorticoid receptor; experiment: Inhibition of mouse glutamine synthetase by GR-mediated transactivation in C2C12 cells; type: cell-based
Glucocorticoid receptor [4] = target: T1, Glucocorticoid receptor; experiment: GR-mediated transrepression of IL-6 in human A549 lung carcinoma cells; type: functional, cell-based
Glucocorticoid receptor [5] = target: T1, Glucocorticoid receptor; experiment: Inhibition of GR-mediated tyrosine amino transferase activity in human HepG2 cells; type: cell-based
[6] = target: T3, Glucocorticoid receptor (Mus musculus) (UniProt P06537); experiment: Percent inhibition of LPS-induced tumor necrosis factor alpha release in mice relative to prednisolone at 3 mg/kg dose; type: organism-based; parameters: dose 3 mg/kg
T3 sequence (whole entry): T2 sequence (P06537 whole entry)

[7] = target: T3, Glucocorticoid receptor (Mus musculus); experiment: Percent absolute inhibition of LPS-induced tumor necrosis factor alpha release in mice at 3 mg/kg dose; type: organism-based; parameters: dose 3 mg/kg

Row | EC50 (Glucocorticoid receptor [5]) [nM] | SMILES | IC50 (Glucocorticoid receptor [1]) [nM] | EC50 (Glucocorticoid receptor [2]) [nM] | EC50 (Glucocorticoid receptor [3]) [nM] | EC50 (Glucocorticoid receptor [4]) [nM] | inhibition [6] [%] | inhibition [7] [%]
1 | – | C[C@]12Cc3cnn(-c4ccc(F)cc4)c3C=C1CCC[C@@H]2[C@@H](O)Cc1ccc(F)cc1 | 4.6 | 3.7 | 17 | – | – | –
2 | 1070 | C[C@]12Cc3cnn(-c4ccc(F)cc4)c3C=C1CCC[C@@H]2[C@@H](O)c1ccc(Cl)s1 | 7.6 | 17 | 34 | 13 | – | –
3 | – | C[C@]12Cc3cnn(-c4ccc(F)cc4)c3C=C1CCC[C@@H]2[C@@H](O)c1cc(Cl)sc1Cl | 10.2 | 120 | – | 31 | – | –
4 | – | COc1cc([C@H](O)[C@H]2CCCC3=Cc4c(cnn4-c4ccc(F)cc4)C[C@@]32C)cc(F)c1F | – | 15 | – | – | – | –
5 | – | C[C@]12Cc3cnn(-c4ccc(F)cc4)c3C=C1CCC[C@@H]2[C@@H](O)c1ccncc1 | 23.2 | 215 | – | 38 | – | –
6 | – | C[C@]12Cc3cnn(-c4ccc(F)cc4)c3C=C1CCC[C@@H]2[C@](C)(O)c1ccsc1 | – | 5.2 | 8.3 | 0.96 | – | –
7 | – | C[C@]12Cc3cnn(-c4ccc(F)cc4)c3C=C1CCC[C@@H]2[C@@H](O)c1ccc(F)nc1 | 13.6 | 12 | 260 | 13 | – | –
8 | – | C[C@]12Cc3cnn(-c4ccc(F)cc4)c3C=C1CCC[C@@H]2[C@@H](O)c1csc2ccccc12 | 5.1 | 54 | – | 18 | – | –
9 | – | C[C@]12Cc3cnn(-c4ccc(F)cc4)c3C=C1CCC[C@@H]2[C@@H](O)c1cccs1 | 7.1 | 21 | – | 37 | – | –
10 | 356 | C[C@]12Cc3cnn(-c4ccc(F)cc4)c3C=C1CCC[C@@H]2[C@H](O)c1csc2ccccc12 | 1.5 | 11 | 3 | 6 | – | –
11 | – | C[C@]12C=CC(=O)C=C1CC[C@@H]1[C@@H]2[C@@H](O)C[C@@]2(C)[C@H]1CC[C@]2(O)C(=O)CO [PREDNISOLONE] | – | 5.7 | – | – | 100 | 71
12 | – | C[C@]12Cc3cnn(-c4ccc(F)cc4)c3C=C1CCC[C@@H]2[C@@H](O)c1cc2ccccc2s1 | – | – | 1210 | 19 | – | –
13 | – | C[C@]12Cc3cnn(-c4ccc(F)cc4)c3C=C1CCC[C@@H]2[C@@H](O)c1ccoc1 | 2.9 | 45 | – | 2.7 | – | –

Row | SMILES | EC50 (Glucocorticoid receptor [5]) [nM] | IC50 (Glucocorticoid receptor [1]) [nM] | EC50 (Glucocorticoid receptor [2]) [nM] | EC50 (Glucocorticoid receptor [3]) [nM] | EC50 (Glucocorticoid receptor [4]) [nM] | inhibition [6] [%] | inhibition [7] [%]
14 | C[C@]12Cc3cnn(-c4ccc(F)cc4)c3C=C1CCC[C@@H]2[C@H](O)c1ccc(F)nc1 | 4440 | 9.1 | 5 | 23 | 21 | – | –

From ChEMBL document CHEMBL1143546, “Novel heterocyclic glucocorticoids: in vitro profile and in vivo efficacy” (Bioorg Med Chem Lett, 2005)
